Test results taken from patent US10669272B2, “Substituted naphthyridinone compounds useful as T cell activators” (BRISTOL-MYERS SQUIBB COMPANY, priority 2018, dated 2020).
Where two headings read alike, the source gives them in different places.

What was measured:
human DGKα = target: T1, human DGKα (Homo sapiens, UniProt P23743); experiment: DGKα LIPGLO assay (extruded liposome substrate), in vitro DGK inhibition; type: biochemical; details: read-out: DGKa LIPGLO IC50
T1 construct: TVMV protease cleavage site (C); Hexa-His (C); made in house; host or cells: Sf9 insect cells (baculovirus, Bac-to-Bac)

human DGKζ = target: T2, human DGKζ (Homo sapiens, UniProt Q13574); experiment: DGKζ LIPGLO assay (extruded liposome substrate), in vitro DGK inhibition; type: biochemical; details: read-out: DGKz LIPGLO IC50
T2 construct: TVMV protease cleavage site (C); Hexa-His (C); made in house; host or cells: Sf9 insect cells (baculovirus, Bac-to-Bac)

Human venous whole blood = experiment: Human whole blood IFN-γ assay; type: cell-based; details: human whole blood, read-out: INFg Whole Blood Normalized Agonist EC50;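 also: blood from healthy donors exposed to compound for 1 h before stimulation with anti-CD3 and anti-CD28 at 1 µg/mL each, IFN-γ quantified in supernatant by AlphaLISA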
[1] = Homo sapiens, 24 h, normalized to 3 μM reference compound with anti-CD3 plus anti-CD28 as 100% activation
[2] = anti-CD3 plus anti-CD28, 24 hours, 3 μM reference compound = 100% activation
[3] = normalized to 3 μM reference compound with anti-CD3 plus anti-CD28 as 100% activation
[4] = Homo sapiens, 24 h, anti-CD3 plus anti-CD28, 24 hours, 3 μM reference compound = 100% activation

T1 sequence (P23743 with tags, fused parts or gaps): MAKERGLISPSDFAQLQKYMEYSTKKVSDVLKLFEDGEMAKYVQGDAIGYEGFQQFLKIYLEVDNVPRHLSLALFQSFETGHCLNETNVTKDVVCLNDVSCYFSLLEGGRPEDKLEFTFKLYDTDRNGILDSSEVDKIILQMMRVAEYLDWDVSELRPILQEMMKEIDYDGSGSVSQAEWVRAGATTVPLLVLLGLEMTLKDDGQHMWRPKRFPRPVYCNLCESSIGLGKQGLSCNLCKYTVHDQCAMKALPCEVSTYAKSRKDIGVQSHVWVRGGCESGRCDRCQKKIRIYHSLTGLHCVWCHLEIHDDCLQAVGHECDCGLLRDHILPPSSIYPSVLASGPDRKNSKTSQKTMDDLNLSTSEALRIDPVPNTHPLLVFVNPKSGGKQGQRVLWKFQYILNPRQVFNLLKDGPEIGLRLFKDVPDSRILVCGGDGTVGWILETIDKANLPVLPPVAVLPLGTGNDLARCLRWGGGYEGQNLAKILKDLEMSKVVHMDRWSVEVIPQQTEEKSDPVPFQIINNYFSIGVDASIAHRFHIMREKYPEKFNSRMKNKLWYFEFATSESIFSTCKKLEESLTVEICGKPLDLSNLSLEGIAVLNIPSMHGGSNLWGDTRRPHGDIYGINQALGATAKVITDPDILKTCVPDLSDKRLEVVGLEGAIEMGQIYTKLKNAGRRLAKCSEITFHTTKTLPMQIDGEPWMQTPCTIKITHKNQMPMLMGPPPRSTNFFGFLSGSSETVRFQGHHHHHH
T2 sequence (Q13574 with tags, fused parts or gaps isoform Q13574-4): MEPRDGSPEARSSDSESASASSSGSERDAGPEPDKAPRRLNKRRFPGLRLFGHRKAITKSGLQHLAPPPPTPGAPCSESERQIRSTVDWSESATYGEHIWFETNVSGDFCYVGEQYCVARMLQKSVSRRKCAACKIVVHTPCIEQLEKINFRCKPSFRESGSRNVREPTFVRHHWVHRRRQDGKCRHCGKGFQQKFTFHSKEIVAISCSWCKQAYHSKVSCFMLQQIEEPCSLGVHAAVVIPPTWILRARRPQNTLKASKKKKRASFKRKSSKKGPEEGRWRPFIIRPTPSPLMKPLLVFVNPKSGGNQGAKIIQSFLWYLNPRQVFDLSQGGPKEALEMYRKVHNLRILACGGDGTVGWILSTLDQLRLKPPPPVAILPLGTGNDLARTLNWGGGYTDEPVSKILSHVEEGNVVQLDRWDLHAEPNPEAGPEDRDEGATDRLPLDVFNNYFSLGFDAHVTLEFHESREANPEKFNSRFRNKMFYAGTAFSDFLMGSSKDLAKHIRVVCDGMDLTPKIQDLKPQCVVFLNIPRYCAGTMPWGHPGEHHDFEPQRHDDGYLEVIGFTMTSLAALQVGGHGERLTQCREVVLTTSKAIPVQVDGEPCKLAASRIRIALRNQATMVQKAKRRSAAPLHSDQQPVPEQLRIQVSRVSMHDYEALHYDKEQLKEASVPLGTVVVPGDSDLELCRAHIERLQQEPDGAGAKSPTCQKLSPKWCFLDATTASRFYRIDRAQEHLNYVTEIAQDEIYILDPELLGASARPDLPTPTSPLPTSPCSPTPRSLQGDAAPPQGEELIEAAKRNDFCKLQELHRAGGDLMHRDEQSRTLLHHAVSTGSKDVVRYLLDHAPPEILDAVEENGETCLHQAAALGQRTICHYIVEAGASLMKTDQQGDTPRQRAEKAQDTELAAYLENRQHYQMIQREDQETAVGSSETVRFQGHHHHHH

Row | IC50 (human DGKα; liposome (LIPGLO) assay) [µM] | IC50 (human DGKζ; liposome (LIPGLO) assay) [µM] | IC50 (human DGKα; DGKα liposome (LIPGLO) assay) [µM] | IC50 (human DGKζ; DGKζ liposome (LIPGLO) assay) [µM] | Structure (SMILES) | EC50 (Human venous whole blood; [1]) [µM] | EC50 (Human venous whole blood; [2]) [µM] | EC50 (Human venous whole blood; [3]) [µM] | EC50 (Human venous whole blood; [4]) [µM]
1 | 9 | 21 | – | – | C[C@@H]1CN(c2cc(=O)n(C)c3ccc(C#N)nc23)[C@@H](C)CN1C(c1ccc(F)cc1)C1CCCCO1 (single isomer, unassigned) [Example 358] | 1 | – | – | –
2 | – | – | 0.21 | 0.37 | CC(c1c(F)cccc1F)N1CCN(c2c(C#N)c(=O)n(C)c3ccc(C#N)nc23)C[C@H]1C (single isomer, unassigned) [Example 950] | – | 3.8 | – | –
3 | – | – | 0.048 | 0.041 | C[C@@H]1CN(c2cc(=O)n(C)c3ccc(C#N)nc23)[C@@H](C)CN1C(c1ccc(Br)cc1)c1nc(C2CC2)no1 (stereo partly drawn) [Example 761] | – | 0.17 | – | –
4 | – | – | 0.98 | 5.8 | C[C@@H]1CN(c2c(C#N)c(=O)n(C)c3ccc(C#N)nc23)CCN1C(c1ccc(F)cc1)c1ccccn1 (single isomer, unassigned) [Example 919] | – | 1.4 | – | –
5 | 4.1 | 1.7 | – | – | COc1cccc(C(c2ccc(F)cc2)N2C[C@H](C)N(c3cc(=O)n(C)c4ccc(C#N)nc34)C[C@H]2C)c1 (single isomer, unassigned) [Example 661] | – | – | 1 | –
6 | – | – | 0.66 | 9.4 | C[C@@H]1CN(c2cc(=O)n(C)c3ccc(C#N)nc23)[C@@H](C)CN1C(c1ccc(F)cc1)c1nnc(C2CC2)[nH]1 (single isomer, unassigned) [Example 766] | – | – | – | 3.5
7 | 5.4 | 3.6 | – | – | CCC(c1ccc(OCCC2CC2)cc1)N1C[C@H](C)N(c2cc(=O)n(C)c3ccc(C#N)nc23)C[C@H]1C (single isomer, unassigned) [Example 1445] | – | – | 5.3 | –
8 | – | – | 83 | 11 | C[C@@H]1CN(c2c(C#N)c(=O)n(C)c3ccc(C#N)nc23)[C@@H](C)CN1C(c1cccc(F)c1)c1ccc(C(F)(F)F)cn1 (single isomer, unassigned) [Example 841] | – | 3.3 | – | –
9 | 40 | 4.9 | – | – | CC(c1ccc(OC(F)(F)F)cc1)N1C[C@H](C)N(c2cc(=O)n(C)c3ccc(C#N)nc23)C[C@H]1CN(C)C (single isomer, unassigned) [Example 1414] | 10 | – | – | –
10 | – | – | 1.4 | 180 | CC(c1ccccn1)N1CCN(c2c(C#N)c(=O)n(C)c3ccc(C#N)nc23)C[C@H]1C (single isomer, unassigned) [Example 963] | – | – | – | 20
11 | 1.6 | 2.7 | – | – | CC(c1nc(C2CC2)cs1)N1C[C@H](C)N(c2cc(=O)n(C)c3ccc(C#N)nc23)C[C@H]1C (single isomer, unassigned) [Example 646] | 6.7 | – | – | –
12 | 79 | 1.4 | – | – | COCc1cc(F)ccc1C(C)N1C[C@H](C)N(c2cc(=O)n(C)c3ccc(C#N)nc23)C[C@H]1C (single isomer, unassigned) [Example 1315] | 20 | – | – | –
13 | 1.7 | 0.68 | – | – | CC[C@H]1CN(C(C)c2ccc(C3CC3)cc2F)[C@H](CC)CN1c1cc(=O)n(C)c2ccc(C#N)nc12 (single isomer, unassigned) [Example 1358] | 1.2 | – | – | –
14 | 21 | 14 | – | – | Cc1ccc(C(c2cncc(F)c2)N2C[C@H](C)N(c3cc(=O)n(C)c4ccc(C#N)nc34)C[C@H]2C)cc1 (single isomer, unassigned) [Example 416] | – | – | 5.2 | –
15 | 0.2 | 0.65 | – | – | CCC(c1ccc(OCC2CC2)cc1)N1C[C@H](C)N(c2cc(=O)n(C)c3ccc(C#N)nc23)C[C@H]1C (stereo partly drawn) [Example 1439, 8-((2S,5R)-4-(1-(4-(cyclopropylmethoxy)phenyl)propyl)-2,5-dimethylpiperazin-1-yl)-5-methyl-6-oxo-5,6-dihydro-1,5-naphthyridine-2-carbonitrile] | 0.25 | – | – | –
16 | 13 | 0.67 | – | – | CC(c1cc(F)cc(OC(F)(F)F)c1)N1C[C@H](C)N(c2cc(=O)n(C)c3ccc(C#N)nc23)C[C@H]1C (single isomer, unassigned) [Example 1211] | – | – | 8.3 | –
17 | – | – | 0.76 | 1.2 | CC(c1ccc(F)cc1F)N1CCN(c2c(C#N)c(=O)n(C)c3ccc(C#N)nc23)C[C@H]1C (single isomer, unassigned) [Example 969] | – | 1.3 | – | –
18 | 0.0069 | 0.49 | – | – | C[C@@H]1CN(c2cc(=O)n(C)c3ccc(C#N)nc23)[C@@H](C)CN1C(c1ccc(F)cn1)c1ccc(F)cc1F (single isomer, unassigned) [Example 684] | – | – | 0.35 | –
19 | 3.6 | 3.4 | – | – | Cc1cc(C(C)N2C[C@H](C)N(c3cc(=O)n(C)c4ccc(C#N)nc34)C[C@H]2C)no1 (single isomer, unassigned) [Example 649] | 20 | – | – | –

Row | IC50 (human DGKα; liposome (LIPGLO) assay) [µM] | IC50 (human DGKζ; liposome (LIPGLO) assay) [µM] | IC50 (human DGKα; DGKα liposome (LIPGLO) assay) [µM] | IC50 (human DGKζ; DGKζ liposome (LIPGLO) assay) [µM] | Structure (SMILES) | EC50 (Human venous whole blood; [1]) [µM] | EC50 (Human venous whole blood; [2]) [µM] | EC50 (Human venous whole blood; [3]) [µM] | EC50 (Human venous whole blood; [4]) [µM]
20 | 0.069 | 0.55 | – | – | CC[C@@H]1CN(c2cc(=O)n(C)c3ccc(C#N)nc23)[C@@H](C)CN1C(c1ccc(OC(F)(F)F)cc1)c1ccccn1 (single isomer, unassigned) [Example 341] | – | – | 0.12 | –
21 | 0.23 | 0.11 | – | – | CC[C@@H]1CN(c2cc(=O)n(C)c3ccc(C#N)nc23)[C@@H](C)CN1C(C)c1ccc(F)c(F)c1 (single isomer, unassigned) [Example 1091] | – | – | 0.14 | –
22 | 1.7 | 5 | – | – | CC[C@@H]1CN(c2cc(=O)n(C)c3ccc(C#N)nc23)[C@@H](C)CN1C(C)c1ccc(F)cc1 (single isomer, unassigned) [Example 1084] | – | – | 2.6 | –
23 | 0.0044 | 0.016 | – | – | CC[C@@H]1CN(c2cc(=O)n(C)c3ccc(C#N)nc23)[C@@H](C)CN1C(C)c1ccc(OC(F)F)cc1 (stereo partly drawn) [Example 1344] | – | – | 0.051 | –
24 | – | – | 37 | 1.6 | C[C@@H]1CN(c2cc(=O)n(C)c3ccc(C#N)nc23)[C@@H](C)CN1C(c1ccc(F)cc1)c1cnc(C2CC2)s1 (single isomer, unassigned) [Example 727] | – | – | – | 1.3
25 | – | – | 0.48 | 0.15 | C[C@@H]1CN(c2c(C#N)c(=O)n(C)c3ccc(C#N)nc23)[C@@H](C)CN1C(c1ccc(F)cc1)c1csc(C2CC2)n1 (single isomer, unassigned) [Example 858] | – | 1.7 | – | –
26 | 1.7 | 2.7 | – | – | CC(c1ccc(OC(F)(F)F)c(F)c1)N1C[C@H](C)N(c2cc(=O)n(C)c3ccc(C#N)nc23)C[C@H]1C (single isomer, unassigned) [Example 1205] | – | – | 8 | –
27 | 0.15 | 2 | – | – | C[C@H]1CN(C(c2ccc(F)cc2)c2ccon2)[C@H](CO)CN1c1cc(=O)n(C)c2ccc(C#N)nc12 (single isomer, unassigned) [Example 1391] | – | – | 0.7 | –
28 | – | – | 2.6 | 7 | Cc1ccc(F)c(CN2CCN(c3c(C#N)c(=O)n(C)c4ccc(C#N)nc34)C[C@H]2C)c1 [Example 1006] | – | – | – | 11
29 | 81 | 2.4 | – | – | Cn1c(=O)cc(N2CCN(Cc3ccc(F)cc3Cl)C(COC(F)F)C2)c2nc(C#N)ccc21 (single isomer, unassigned) [Example 1185, 8-(4-(2-chloro-4-fluorobenzyl)-3-((difluoromethoxy)methyl)piperazin-1-yl)-5-methyl-6-oxo-5,6-dihydro-1,5-naphthyridine-2-carbonitrile] | 4.3 | – | – | –
30 | – | – | 0.6 | 0.31 | C[C@@H]1CN(c2c(C#N)c(=O)n(C)c3ccc(C#N)nc23)CCN1C(c1cccc(F)c1)c1ccc(C(F)(F)F)cn1 (single isomer, unassigned) [Example 948] | – | 0.34 | – | –
31 | 6.2 | 2.1 | – | – | CC[C@@H]1CN(c2cc(=O)n(C)c3ccc(C#N)nc23)[C@@H](C)CN1C(C)c1ccc(C(F)(F)F)cc1F (single isomer, unassigned) [Example 1086] | – | – | 2.5 | –
32 | – | – | 8.1 | 1.7 | COC(=O)c1cccc(C(C)N2CCN(c3c(C#N)c(=O)n(C)c4ccc(C#N)nc34)C[C@H]2C)c1 (single isomer, unassigned) [Example 982] | – | – | – | 20
33 | 0.33 | 5.1 | – | – | C[C@@H]1CN(c2cc(=O)n(C)c3ccc(C#N)nc23)[C@@H](C)CN1Cc1ccc(OC(F)F)cc1F [Example 590] | 1.9 | – | – | –
34 | 0.06 | 0.91 | – | – | CC[C@H]1CN(C(c2ccc(F)cc2)c2cocn2)[C@H](CC)CN1c1cc(=O)n(C)c2ccc(C#N)nc12 (single isomer, unassigned) [Example 1069] | – | – | 2.1 | –
35 | 0.11 | 0.087 | – | – | CC[C@H]1CN(C(c2ccc(F)cc2)c2ccc(C(F)(F)F)cn2)[C@H](CC)CN1c1cc(=O)n(C)c2ccc(C#N)nc12 (stereo partly drawn) [Example 1039] | 0.091 | – | – | –
36 | 42 | 49 | – | – | C[C@@H]1CN(c2cc(=O)n(C)c3ccc(C#N)nc23)[C@@H](C)CN1C(c1ccc(F)cc1)c1cncnc1 (single isomer, unassigned) [Example 394] | – | – | 18 | –
37 | – | – | 5.1 | 1.9 | C[C@@H]1CN(c2c(C#N)c(=O)n(C)c3ccc(C#N)nc23)[C@@H](C)CN1C(c1ccc(F)cc1)c1ccns1 (single isomer, unassigned) [Example 854] | – | – | – | 10
